Experimental data published in publication PMC5387716, “Discovery of monocarbonyl curcumin-BTP hybrids as STAT3 inhibitors for drug-sensitive and drug-resistant breast cancer therapy” (Scientific Reports, 2017).

Experiments:
STAT1 = assay: IFN-γ induced STAT1 phosphorylation (western blot); assay type: cell-based, human; details: MCF-7, 0.5–4 μM, 6 h, IFN-γ 50 ng/mL 30 min; compared with effect on IL-6-induced p-STAT3
MCF-7 cells = assay: MTT anti-proliferative assay, MCF-7; assay type: cell-based, human; details: Homo sapiens, MCF7, 48 h, read-out: MCF-7 IC50 ± SD
Procedure: All cell lines were purchased from Cell Bank of Shanghai Institute of Biochemistry and Cell Biology, Chinese Academy of Sciences (Shanghai, China). Human breast carcinoma cells (MCF-7 and MCF-7/DOX), breast epithelial cells (MCF-10A) and normal human liver cells (LO2) were maintained in RPMI-1640 medium. All cells were supplemented with 12% fetal bovine serum containing 50 μg/ml penicillin and 50 μg/ml streptomycin. Cells were grown to 80% confluency in a tissue culture flask at 37 °C in a humidified atmosphere containing 5% CO2, and then were trypsinized with 1 × Trypsin-Versene and split. The MCF-7/DOX cell line we used was established from its parental cell line MCF-7 cell by gradually increasing the concentration of DOX to which the cells were exposed in a stepwise manner over a period of 8 months. […] The cells were incubated in drug-free medium for at least 1 week before use.
Cells (MCF-7, MCF-7/DOX, MCF-10A, LO2) were seeded in 96-well plates at a density of 3,000–6,000 cells per well. The cells were incubated overnight (16 h) in a humidified 5% CO2 incubator at 37 °C. After media removal, different concentrations of test compounds were added in triplicate to the plates in 200 μL of fresh media and were incubated with the cells at 37 °C for 48 h. […] Cell viability was evaluated using 3-(4, 5-dimethylthiazolyl)-2,5-diphenyltetrazoliumbromide (MTT). The absorbance was read by an ELISA reader (SpectraMax Plus384, Molecular Devices, Sunnyvale, CA) at a test wavelength of 570 nm and a reference wavelength of 630 nm. Cell viability was calculated using the following formula: […]

Cyclin D1 = assay: Western blot of Cyclin D1; assay type: cell-based, human; details: MCF-7 and MCF-7/DOX cells, 24 h
Procedure: (§1) MCF-7 or MCF-7/DOX cells were incubated with various concentrations of 6b for 24 h. After trypsinization, cells were treated with 1× RIPA lysis buffer (50 mM Tris–HCl, pH 7.4, 150 mM NaCl, 0.25% deoxycholic acid, 1% NP-40, 1 mM EDTA and protease inhibitors) (Amresco, Solon, USA) to extract the total proteins. An aliquot of proteins from the total cell lysates (30 to 60 μg/lane) was separated by sodium dodecyl sulfate (10%) polyacrylamide gel electrophoresis (SDS–PAGE, Bio-Rad Laboratories, Hercules, CA), wet-transferred to NC membrane (Bio-Rad Laboratories, Hercules, CA) and blotted with primary antibodies specific for STAT3, p-STAT3, p-Jak2, Jak2, p-Src, Src, Erk, P-Erk, PARP, cleaved PARP, Bcl-2, Bax, Cyclin D1, P-gp and GAPDH. Bound immuno-complexes were detected using ChemiDOC™ XRS + system (Bio-Rad Laboratories, Hercules, CA).

MCF-10A cells = assay: Annexin V-APC/7-AAD flow cytometry of apoptosis, MCF-10A; assay type: cell-based, human; details: concentrations up to 4 μM
Procedure: MCF-7, MCF-7/DOX or MCF-10A cells, at a density of 2.5 × 10^5 cells per well, were cultured in regular growth medium in 6-well plates for 24 h and treated in duplicate with different concentrations of 6b or curcumin for 24 h. The cells were harvested, washed and stained with 5 μL of Annexin V-APC and 5 μL of 7-AAD at room temperature for 15 min. Cells were then analyzed by flow cytometry (488 nm excitation and 600 nm emission filters) using a BD FACSCalibur flow cytometer (Becton & Dickinson Company, Franklin Lakes, NJ).

STAT3 [1] = assay: EMSA of STAT3 DNA-binding activity (hSIE probe); assay type: cell-based, human; details: nuclear extracts of MCF-7 cells, 24 h
Procedure: MCF-7 cells were cultured overnight and then treated with compound 6b in fresh regular growth medium for 24 h. The cells were harvested and nuclear extract preparations and EMSA analysis were carried out as previously described. The ^32P-labeled oligonucleotide, hSIE probe, was used to bind STAT3.

STAT3 [2] = assay: Western blot of STAT3 phosphorylation; assay type: cell-based, human; details: MCF-7 and MCF-7/DOX cells
Procedure: as §1

[3] = test system: implanted human breast tumors (MCF-7); assay: MCF-7 xenograft in BALB/c nude mice; assay type: in vivo; details: 10 mg/kg ip daily for 21 days
Procedure: The working solution was prepared in a Cremophor and DMSO mixture (10% Cremophor, 10% DMSO and 80% 1 × PBS) to give a 1 mg/ml solution. Athymic BALB/c nude mice (15–18 g) were injected with human breast tumor MCF-7 cells (3 × 10^6 cells in a volume of 0.2 ml) into the subcutaneous tissue of the right auxiliary region of the mice. Three days after the tumor cell inoculation, the mice were randomly sorted into three groups with six mice per group. The tumor-bearing mice were either given a daily 10 mg/kg ip injection of compound 6b or the vehicle. The treatment was initiated when the tumor burden of the mice reached approximately 50 mm^3. The tumor size was measured by caliper three times a week to document tumor growth and calculated by the formula: length × width × width/2, and the body weight was measured and recorded. Therapeutic efficacy was evaluated based on body weight loss, tumor growth inhibition [determined by using calipers and calculated by the formula: tumor inhibit rate (%) = (tumor volCon − tumor volTre)/tumor volCon] × 100. The body weight inhibitory ratio, BI (%) was calculated as BI (%) = (1 −MT/MC) × 100, where MT and MC were the average body weights of the treated and control groups, respectively. On the 22nd day, all mice were killed, and the tumors were segregated, weighed, and stored in −80 °C for later use. The levels of p-STAT3 in tumor tissues prepared from control or mice treated with 6b were analyzed by western blot assay. Apoptosis was evaluated via the TUNEL assay, and the Ki-67 assay was used to assess cancer cell proliferation.

Jak2 = assay: Western blot of p-Jak2; assay type: cell-based, human; details: MCF-7 and MCF-7/DOX cells, 24 h
Procedure: as §1

COc1ccc(/C=C/C(=O)N2CCN(C(=O)C3=Cc4cc(Br)ccc4S3(=O)=O)CC2)cc1 [Compound 6b, (E)-1-(4-(5-bromo-1,1-dioxidobenzo[b]thiophene-2-carbonyl)piperazin-1-yl)-3-(4-methoxyphenyl)prop-2-en-1-one]
IFN-γ-induced STAT1 phosphorylation (STAT1): less of an effect
melting point: 250 to 251 °C
IC50 (MCF-7 cells): 0.52 ± 0.16 µM
expression of Cyclin D1 (protein) (Cyclin D1): inhibited
apoptosis (MCF-10A cells): little
STAT3 DNA-binding activity (STAT3 [1]): strongly inhibited STAT3 DNA-binding activity in a dose-dependent manner
p-STAT3 level (STAT3 [2]; 1.0 μM): significantly inhibited
STAT3 phosphorylation at the Ser727 residue (STAT3 [2]; 24 h): little effect
STAT3 phosphorylation at the pTyr705 residue (STAT3 [2]; 24 h): dose-dependent inhibition
total STAT3 protein level (STAT3 [2]; 24 h): little effect
Ki-67 immunohistochemical staining in tumor tissues [3]: suppressed tumor cell proliferation
TUNEL assay of tumor cells [3]: induced tumor cell apoptosis
changes in the body weights of the mice [3]: no significant changes
reduction of the weight of the tumor tissues compared with the control [3]: 68.2%
p-STAT3 in lysates from the tumor tissues (immunoblotting) ([3]; vs control tumors): suppression of p-STAT3
volumes of the implanted human breast tumors ([3]; vs vehicle): significantly reduced
phosphorylation of Jak2 (Jak2): inhibited
